Measured values reported in PubChem BioAssay (NCI).
Where “and” joins values, the source holds several entries; their conditions need not be identical. Equal values may be shown once.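 Cells were grown in 96-well plates and exposed to each compound for 48 hours at five concentrations; endpoints were interpolated linearly between bracketing concentrations, or set to the highest concentration if not reached. Here, GI50 denotes the concentration required for 50% inhibition of growth. The concentration for full growth arrest is given as TGI.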

Columns and labels:
Test in all cases: inhibition of tumour cell growth, NCI panel, 48 h
HOP-92 NSCLC = system: HOP-92 NSCLC
MALME-3M melanoma = system: MALME-3M melanoma
NCI/ADR-RES ovarian = system: NCI/ADR-RES ovarian
OVCAR-8 ovarian = system: OVCAR-8 ovarian
SK-MEL-2 melanoma = system: SK-MEL-2 melanoma
SN12C renal = system: SN12C renal
U251 CNS = system: U251 CNS
UO-31 renal = system: UO-31 renal

Compound	GI50 (HOP-92 NSCLC)	TGI (HOP-92 NSCLC)	GI50 (MALME-3M melanoma)	TGI (MALME-3M melanoma)	GI50 (NCI/ADR-RES ovarian)	TGI (NCI/ADR-RES ovarian)	GI50 (OVCAR-8 ovarian)	TGI (OVCAR-8 ovarian)	GI50 (SK-MEL-2 melanoma)	TGI (SK-MEL-2 melanoma)	GI50 (SN12C renal)	TGI (SN12C renal)	GI50 (U251 CNS)	TGI (U251 CNS)	GI50 (UO-31 renal)	TGI (UO-31 renal)
CN1CCN(C(=O)OCc2nc3c(N4CCOCC4)nc(Cl)nc3n2C)CC1	675 nM	2.23 µM	1500 nM	2.87 µM	2.46 µM	9.59 µM	1.33 µM	5.68 µM	1620 nM	3.45 µM	1450 nM	3.06 µM	1.52 µM	3.39 µM	1070 nM	2.29 µM
C=C1C(=O)O[C@H]2[C@H]1CC/C(Cn1cc(-c3ccc(OC)cc3)nn1)=C\CC[C@@]1(C)O[C@@H]21	1130 nM	2.69 µM	1670 nM	3.4 µM	3.08 µM	12.4 µM	2.59 µM	7.67 µM	1950 nM	4.61 µM	1960 nM	5.27 µM	9.45 µM	21.5 µM	1270 nM	2.64 µM
COC(=O)[C@]12CC[C@@H](C)[C@H](C)[C@@H]1C1=CC[C@@H]3[C@@]4(C)C/C(=N\O)[C@H](O)[C@@]5(C)COC(=C45)C[C@@]3(C)[C@]1(C)CC2	2980 nM	10.3 µM	15900 nM	34.2 µM	2.61 µM	7.88 µM	10 µM	26.6 µM	13400 nM	28.9 µM	5790 nM	21.2 µM	3.02 µM	9.79 µM	12300 nM	29.2 µM
CC(C)c1nc(CN(C)C(=O)N[C@H](C(=O)N[C@@H](Cc2ccccc2)C[C@H](O)[C@H](Cc2ccccc2)NC(=O)OCc2cncs2)C(C)C)cs1	20800 nM	49.5 µM	22100 nM	> 57 µM	37.9 µM	> 100 µM	36.3 µM	> 100 µM	31700 nM	> 100 µM	20200 nM	50.4 µM	24.3 µM	71.2 µM	24500 nM	> 83.8 µM
Oc1c(CN2CCC(N3CCCCC3)CC2)cc(Cc2cc(CN3CCC(N4CCCCC4)CC3)c(O)c3ncccc23)c2cccnc12	3380 nM	21 µM	1790 nM	4.26 µM	3.12 µM	17.9 µM	1.83 µM	12.3 µM	2210 nM	7.04 µM	1620 nM	16 µM	0.835 µM	13.6 µM	1000 nM	4.22 µM
COc1cc([N+](=O)[O-])cc2c3c(n(C)c12)[C@@]1(C)CCC2c4ccc(OCc5ccccc5)cc4CCC2C1C3 (stereo not given in full)	–	–	> 100000 nM	> 100 µM	> 100 µM	> 100 µM	> 100 µM	> 100 µM	> 100000 nM	> 100 µM	> 100000 nM	> 100 µM	37.5 µM	> 100 µM	> 100000 nM	> 100 µM
CC[C@@H]1C(=O)N(C)c2cnc(Nc3ccc(C(=O)NC4CCN(C)CC4)cc3OC)nc2N1C1CCCC1	12.5 nM and 14.9 nM	0.563 µM and 2.36 µM	1120 nM and 1370 nM	2.57 µM and 3.39 µM	0.351 µM and 0.244 µM	> 10 µM and 19 µM	0.00414 µM	> 10 µM	–	> 10 µM and 6.29 µM	23.3 nM and 39 nM	4.32 µM and 14.1 µM	0.00492 µM and < 0.01 µM	> 10 µM and 7.79 µM	323 nM and 631 nM	> 3.97 µM and 15.1 µM
CC(C)(CC(=O)Nc1ccccc1)C(=O)O	–	> 100 µM	–	–	–	> 100 µM	–	> 100 µM	–	> 100 µM	–	> 100 µM	–	> 100 µM	–	> 100 µM
Cc1ccc2c(c1)[n+]([O-])c(N)n[n+]2[O-]	–	–	–	–	–	> 100 µM	–	> 100 µM	–	> 100 µM	–	> 100 µM	–	> 100 µM	–	> 100 µM
CC[C@@H]1CN(C)[C@H]2Cc3c([nH]c4ccccc34)C(=O)C[C@H]1C2C(=O)OC (stereo not given in full)	–	> 100 µM	–	> 100 µM	–	> 100 µM	–	> 100 µM	–	> 100 µM	–	> 100 µM	–	> 100 µM	–	> 100 µM
O=C1CCCCN1CCCCC#Cc1ccccc1C#Cc1ccc([N+](=O)[O-])cc1	4390 nM	27.4 µM	37200 nM	> 100 µM	3.35 µM	12.3 µM	2.81 µM	9.13 µM	3650 nM	16.7 µM	17100 nM	37.3 µM	3.79 µM	14.4 µM	19500 nM	84.6 µM
FC(F)(F)c1cccc(Nc2nccc(-c3cnn4nc(-c5ccccc5)ccc34)n2)c1	3540 nM	10.9 µM	7230 nM	14.1 µM	8.37 µM	> 21.7 µM	6.54 µM	> 18.4 µM	–	–	> 13500 nM	> 25 µM	4.58 µM	10.1 µM	10800 nM	> 23.1 µM
C=CC(=O)N1CC2(CCN(c3nc(OC4CCN(CCCOC)CC4)nc4c(OCC(F)(F)F)c(-c5c(C)ccc6[nH]ncc56)c(C5CC5)cc34)CC2)C1	3530 nM	11 µM	1660 nM	3.14 µM	14.8 µM	36.6 µM	3.26 µM	17.4 µM	2190 nM	4.77 µM	2360 nM	5.86 µM	2.81 µM	10 µM	1700 nM	3.13 µM
Oc1ccc(CN2CCC(N3CCCCC3)CC2)c2cccnc12	4510 nM	> 100 µM	24400 nM	> 100 µM	24.2 µM	> 100 µM	7.69 µM	> 100 µM	27900 nM	> 100 µM	8180 nM	> 100 µM	5.57 µM	> 100 µM	6200 nM	34.6 µM
COc1ccc(-c2cc(=O)c3ccc(O)cc3o2)cc1OC	–	> 100 µM	–	> 100 µM	–	> 100 µM	–	> 100 µM	–	> 100 µM	–	> 100 µM	–	> 100 µM	–	–
CC[C@@]1(O)C(=O)OCc2c1cc1n(c2=O)Cc2c-1nc1cc3c(cc1c2CCl)OCO3	< 10 nM	0.466 µM	62.9 nM	2 µM	< 0.01 µM	0.133 µM	< 0.01 µM	0.602 µM	206 nM	1.22 µM	< 10 nM	0.367 µM	< 0.01 µM	1.9 µM	< 10 nM	0.756 µM
C[C@@H]1OC(O)[C@@H](F)[C@H](O)[C@@H]1O (stereo not given in full)	> 100000 nM	> 100 µM	> 100000 nM	> 100 µM	> 100 µM	> 100 µM	> 100 µM	> 100 µM	> 100000 nM	> 100 µM	> 100000 nM	> 100 µM	> 100 µM	> 100 µM	> 100000 nM	> 100 µM

Compound	GI50 (HOP-92 NSCLC)	TGI (HOP-92 NSCLC)	GI50 (MALME-3M melanoma)	TGI (MALME-3M melanoma)	GI50 (NCI/ADR-RES ovarian)	TGI (NCI/ADR-RES ovarian)	GI50 (OVCAR-8 ovarian)	TGI (OVCAR-8 ovarian)	GI50 (SK-MEL-2 melanoma)	TGI (SK-MEL-2 melanoma)	GI50 (SN12C renal)	TGI (SN12C renal)	GI50 (U251 CNS)	TGI (U251 CNS)	GI50 (UO-31 renal)	TGI (UO-31 renal)
CCN(CC)c1ccc(/C=C/c2ccc3cc(C)ccc3[n+]2CC)cc1	147 nM	0.87 µM	149 nM	1.33 µM	5.69 µM	47.4 µM	0.107 µM	12.6 µM	173 nM	0.71 µM	124 nM	1.2 µM	0.0441 µM	14.5 µM	691 nM	7.45 µM
CC(=O)OCCN1c2ccccc2Sc2cnccc21	–	> 10 µM	–	> 10 µM	–	> 10 µM	–	> 10 µM	–	> 10 µM	–	> 10 µM	–	> 10 µM	–	> 10 µM
C=CCCCCCCCCC(=O)[O][Sn]([CH2]CCC)([CH2]CCC)[CH2]CCC	75 nM	0.24 µM	135 nM	0.287 µM	0.163 µM	0.32 µM	–	–	189 nM	0.377 µM	153 nM	0.331 µM	0.165 µM	0.318 µM	132 nM	0.276 µM
COc1ccc(/C(COc2c(-c3ccccc3)oc3ccccc3c2=O)=N\O)cc1	> 50000 nM	> 50 µM	–	–	11.4 µM	39.6 µM	47.6 µM	> 50 µM	9820 nM	45.5 µM	10600 nM	33.9 µM	18.9 µM	> 50 µM	41400 nM	> 50 µM
CC1(C)OC2[C@@H](CNC(=O)NC(=O)NC(=O)CI)O[C@@H](n3cnc4c(NC(=O)Nc5ccccc5)ncnc43)[C@H]2O1 (stereo not given in full)	1400 nM	4.23 µM	1120 nM	2.9 µM	16.4 µM	> 50 µM	9.45 µM	22.7 µM	10500 nM	21.5 µM	10300 nM	28.6 µM	10 µM	20.4 µM	1340 nM	4.27 µM
CCCn1cnc2c(SCc3ccccc3Cl)nc(N)nc21	1440 nM	23.9 µM	21400 nM	58.7 µM	14.8 µM	64.1 µM	15.3 µM	> 100 µM	22600 nM	50.9 µM	19600 nM	95.2 µM	5.62 µM	37.8 µM	10800 nM	63.5 µM
O=C(N/N=C/c1ccccc1O)c1ccccc1Nc1ccnc(C(F)(F)F)c1	388 nM	10.9 µM	858 nM	19.2 µM	0.433 µM	30.1 µM	0.711 µM	> 37.4 µM	3610 nM	> 60.5 µM	974 nM	72.6 µM	0.442 µM	> 100 µM	291 nM	3.12 µM
O=C1Nc2c(C(F)(F)F)cccc2[C@]1(c1ccc(O)cc1)c1ccc(OC(F)(F)F)cc1	5820 nM	21.5 µM	13000 nM	26.6 µM	8.78 µM	25.8 µM	5.29 µM	21.8 µM	12600 nM	28.2 µM	2830 nM	12.3 µM	11.1 µM	24.6 µM	6450 nM	20 µM
Nc1nc(Cl)c2ncn(Cc3ccc(C45CC6CC(CC(C6)C4)C5)c(O)c3)c2n1	1480 nM	6.19 µM	2220 nM	16.3 µM	3.15 µM	16.4 µM	2.93 µM	14.1 µM	16000 nM	48.3 µM	2950 nM	13.4 µM	3.09 µM	12.9 µM	12700 nM	28.1 µM
CC/C(=C(/c1ccc(O)cc1)c1ccc(OCCNC)cc1)c1ccccc1	1180 nM	3.72 µM	–	–	2.32 µM	5.85 µM	2.14 µM	5.13 µM	2080 nM	3.77 µM	2190 nM	5.78 µM	1.54 µM	2.93 µM	1860 nM	4.8 µM
COc1ccc(-c2cnnc3c(-c4cccc(C(F)(F)F)c4)cnn23)cc1	–	2.85 µM	–	–	3.05 µM	> 100 µM	3.33 µM	> 100 µM	1430 nM	79.8 µM	3070 nM	> 100 µM	3.61 µM	> 100 µM	–	–
COc1ccc(/C=C/c2nccc3ccccc23)cc1OC	–	> 10 µM	–	> 10 µM	–	> 10 µM	–	> 10 µM	–	> 10 µM	–	> 10 µM	–	> 10 µM	–	–
CC1=CC(=Nc2ccc(N(CCCl)CCCl)cc2)C=C(C)C1=O	392 nM	2.06 µM	1840 nM	6.49 µM	1.09 µM	10.1 µM	–	–	1480 nM	4.77 µM	1010 nM	> 26.7 µM	1.02 µM	7.33 µM	–	–
Nc1cc(N)c2nc(-c3ccccc3)c(Nc3ccc(Cl)c(Cl)c3)nc2c1	–	–	10300 nM	24.3 µM	15.4 µM	55.3 µM	5.18 µM	79.8 µM	2320 nM	19.1 µM	12700 nM	31.8 µM	4.68 µM	> 100 µM	11100 nM	36.3 µM
COc1ccc(NC2=CC(=O)C(=O)c3ccccc32)nn1	–	–	–	1.96 µM	–	3.65 µM	–	5.35 µM	–	4.32 µM	–	3.52 µM	–	12.4 µM	–	11.8 µM
CCC(C)c1c(Cl)nc(Cl)nc1Cl (stereo not given)	–	–	–	> 100 µM	–	> 100 µM	–	38.3 µM	–	> 100 µM	–	85.4 µM	–	15.4 µM	–	33.4 µM
